The text below walks through data of patent publication US7265154B2, “Valproic acid and derivatives thereof as histone deacetylase inhibitors” (Georg-Speyter-Haus Chemotherapeutisches Forschungsinstitut, priority 2000, dated 2007).

Where “and” joins values, the source holds several entries; their conditions need not be identical. Equal entries are not always repeated. Square brackets hold non-standard residues; d marks the D form. Peptide text beside a SMILES is read from it. Aoe = N[C@@H](CCCCCC(=O)[C@@H]1CO1)C(=O)O

In assay [1] the test system is F9 teratocarcinoma cells. Put plainly: 3H-thymidine incorporation in F9 cells. The settings on record: 1 mM VPA, 36 h, then 12 h 3H-thymidine. Type of assay: cell-based. The source says: (§1) Cell differentiation is associated with cell cycle arrest, morphological alterations and the appearance of expression of markers of the differentiated phenotype. Morphological alterations where determined by microscopic evaluation of F9 and HT-29 cells. One parameter of differentiation, the cell cycle arrest, was shown in F9 teratocacrcinoma, estrogen independent MT-450 breast cancer and HT-29 colonic carcinoma cells by means of the reduced incorporation of ^3H-thymidine into cultured cells. […] 37 kBq of ^3H-thymidine were added for additional 12 h of culture. MT-450 cells were cultured for 72 h prior to a 1 h ^3H-thymidine labelling period. Incorporation of ^3H-thymidine into DNA was determined by automatic cell harvesting and liquid scintillation counting. […] The dose-response for the reduction of thymidine incorporation into HT-29 cells (FIG. 5A) was determined by the same experimental procedure. In addition, the induction of a cell differentiation marker was shown in F9 teratocarcinoma cells (FIG. 5B).
For orientation: Incorporation of labelled thymidine or its analogues reports DNA synthesis.

Assay [2] relates to MT-450 breast cancer cells. Put plainly: 3H-thymidine incorporation in MT-450 cells. Type of assay: cell-based. As to conditions: 1 mM VPA, 72 h, then 1 h 3H-thymidine.
Excerpt: as §1

Assay [3] relates to HT-29 colonic carcinoma cells. Put plainly: 3H-thymidine incorporation in HT-29 cells. Type of assay: cell-based. As to conditions: 1 mM VPA, 36 h, then 12 h 3H-thymidine.
Excerpt: as §1

The test system of assay [4] is F9 teratocarcinoma cells. Description: Nuclear AP-2 protein as differentiation marker, Western blot. Type of assay: cell-based. As to conditions: 48 h; VPA 1 mM, sodium butyrate 1 mM, trichostatin A 30 nM. From the text:
Nuclear extracts were separated on a 9% SDS polyacrylamide gel. AP-2 protein was detected by Western blot analysis using a rabbit polyclonal antibody (Santa Cruz, Cat.-No.: SC-184) at a dilution of 1/1000 in Tris buffered saline containing 3% non-fat dry milk and 0.05% Tween 20.
For orientation: In western blotting, separated proteins are transferred to a membrane and probed.

Assay [5] concerns histones H3 and H4 in F9 cells. Description: Accumulation of hyperacetylated histones H3 and H4, Western blot. Type of assay: cell-based. As to conditions: whole cell extracts, VPA in the range of therapeutic serum levels, 16 h. From the text:
Histone deacetylase inhibitors induce the accumulation of N-terminally hyperacetylated histones H3 and H4. These acetylated histones can be detected by Western blot analysis of whole cell extracts or of histone preparations from histone deacetylase inhibitor-treated cells using antibodies specific for the acetylated N-terminal lysine residues of histones H3 and H4.
These acetylated histones can be detected by Western blot analysis in cell extracts of appropriately treated cells.
(A) For the time course analysis F9 cells were seeded into 6-well culture dishes 30 h before the intended time point of analysis. […] DNA of collected samples was sheared by sonication and samples were separated on a 15% denaturing polyacrylamide gel. Acetylated histones H3 and histone H4 were detected by Western blot analysis using commercially available antibodies (Upstate Biotechnology) specific for the acetylated forms of histones (Ac-H3, Cat-Nr.: 06-599; Ac-H4, Cat-Nr.: 06-598). Equal loading of the lanes was confirmed by staining a part of the polyacrylamide gel by Coomassie blue.
Whole cell extracts were prepared 16 h after treatment as described above. Analysis for acetylated histones H3 and H4 was performed as described in (A).

The subject of assay [6] is breast, ovarian, squamous cell and renal carcinoma cells. Description: Cell viability assay (MTT). Type of assay: cell-based. The settings on record: 1 or 3 mM, 40 h or 70 h. The protocol:
Human MDA-MB468, MDA-MB453 and SKBR3 breast carcinoma cells, A431 squamous cell carcinoma cells, and SKOV3 ovarian carcinoma cells were maintained in Dulbecco's modified Eagle's medium (DMEM, BioWhittaker, Verviers, Belgium) supplemented with 10% heat inactivated fetal bovine serum (FBS), 2 mM L-glutamine, 100 units/ml penicillin, and 100 μg/ml streptomycin. Human MCF7 breast carcinoma cells were grown in RPMI medium supplemented as described above.
Renal cell carcinoma (Renca) cells stably transfected with plasmid pZeoSV2/lacZ encoding E. coli β-galactosidase (Renca-lacZ cells) (Maurer-Gebhard et al., Cancer Res. 58: 2661-2666, 1998) were grown in RPMI-1640 medium supplemented with 8% FBS, 2 mM L-glutamine, 100 U/ml penicillin, 100 μg/ml streptomycin, 0.25 mg/ml Zeocin. […]
Tumor cells were seeded in 96 well plates at a density of 1×10^4 cells/well in normal growth medium. […] After solubilization of the formazan product, the absorption at 590 nm was determined in a microplate reader (Dynatech, Denkendorf, Germany) and the relative amount of viable cells in comparison to cells grown without the addition of valproic acid was calculated.

For assay [7], the system named is human cancer cell cultures. Description: Reduction of total cellular biomass (Sulforhodamine B). Type of assay: cell-based. As to conditions: 48 hours VPA. The method, then: Background OD of complete medium with 5% FBS fixed and stained as described above was also determined in 12 separate wells.
In assay [8] the test system is SW-1116 colon cancer cells. Description: Morphological evaluation for cell death, SW-1116. Type of assay: cell-based, human. The settings on record: 1 mM VPA. The protocol: (§2) The reduction in biomass could indicate cell loss due to cell death and/or differentiation associated cell cycle arrest. Quantitative parameters, e.g. the loss of biomass, was determined in 30 human cancer cell lines (FIG. 8 e) and twelve examples of dose-response curves are shown, e.g. BT-549 breast cancer cells (1), estrogen dependent ZR-75 breast cancer cells (2), DMS-114 small cell lung cancer cells (3), NCl—H226 non-small cell lung cancer cells (4), SK-MEL-28 skin cancer cells (5), OVCAR-3 ovarian cancer cells (6), HUP-T3 pancreatic cancer cells (7), DU-145 prostate cancer cells (8), DETROIT-562 head and neck cancer cells, LS-174 colon cancer cells (10), A-172 brain cancer cells (11) and HL-60 leukemia cells (12) (FIGS. 8a-d). All cells were evaluated for morphological signs of cell death and/or differentiation.

The test system of assay [9] is PC-3 cells. Description: Morphological evaluation for differentiation, PC-3. Type of assay: cell-based, human. The settings on record: VPA treatment. The method, then:
as §2

Assay [10] deals with DU-145 prostate cancer cells. Put plainly: Morphological evaluation for differentiation, DU-145. Type of assay: cell-based, human. The settings on record: VPA treatment. The method, then:
as §2

Assay [11] relates to U87MG cells. Put plainly: Morphological evaluation for differentiation, U87MG. The settings on record: VPA treatment. Type of assay: cell-based, human. The protocol: as §2
In assay [12] the test system is Gal4 fusion proteins of TR, PPARδ, RAR, N—CoR and AML/ETO in Hela cells. Put plainly: Gal4 fusion protein transcriptional repression assay, UAS TK luciferase reporter. Type of assay: cell-based. The settings on record: 24 h, VPA 1 mM, Trapoxin 10 nM, TSA 100 nM. (Reporter assays use an easily measured gene product as a stand-in for the process of interest.)
Excerpt: The transcriptional assay for repressor activity exploits activation and derepression of a Gal4-dependent reporter gene. This assay can be performed either by transient transfection of mammalian cell lines (e.g. HeLa, 293T, CV-1) or with specifically constructed permanent cell lines. Transcription factors such as thyroid hormone receptor, PPARδ, retinoic acid receptor, N—COR and AML/ETO repress transcription when they bind to a promoter containing UAS elements as fusion proteins with the heterologous DNA-binding domain of the yeast Gal4 protein. […] HDAC inhibitors induce relief of this repression which can be detected as an increase in reporter gene activity (e.g. by luciferase assay).
The transcription factors thyroid hormone receptor (TR), peroxisome proliferator activated receptor □ (PPARδ), retinoic acid receptor (RAR), the corepressor N—CoR and the AML/ETO fusion protein repress transcription when they bind to a promoter containing UAS sites (Gal4 response element) as fusion proteins with the heterologous DNA binding domain of the yeast Gal4 protein. […] Transcriptional repression is measured as luciferase activity relative to the baseline of cells transfected with an expression plasmid for the Gal4 DNA binding domain alone (FIG. 2).
Assay [13] has as its target T1, PPARδ ligand binding domain (glucocorticoid receptor hybrid) (UniProt P04150+P35396).
T1 construct: expressed in transfected cells; host or cells: CHO subclone with MMTV-LTR alkaline phosphatase reporter
T1 sequence (P04150+P35396 with tags, fused parts or gaps): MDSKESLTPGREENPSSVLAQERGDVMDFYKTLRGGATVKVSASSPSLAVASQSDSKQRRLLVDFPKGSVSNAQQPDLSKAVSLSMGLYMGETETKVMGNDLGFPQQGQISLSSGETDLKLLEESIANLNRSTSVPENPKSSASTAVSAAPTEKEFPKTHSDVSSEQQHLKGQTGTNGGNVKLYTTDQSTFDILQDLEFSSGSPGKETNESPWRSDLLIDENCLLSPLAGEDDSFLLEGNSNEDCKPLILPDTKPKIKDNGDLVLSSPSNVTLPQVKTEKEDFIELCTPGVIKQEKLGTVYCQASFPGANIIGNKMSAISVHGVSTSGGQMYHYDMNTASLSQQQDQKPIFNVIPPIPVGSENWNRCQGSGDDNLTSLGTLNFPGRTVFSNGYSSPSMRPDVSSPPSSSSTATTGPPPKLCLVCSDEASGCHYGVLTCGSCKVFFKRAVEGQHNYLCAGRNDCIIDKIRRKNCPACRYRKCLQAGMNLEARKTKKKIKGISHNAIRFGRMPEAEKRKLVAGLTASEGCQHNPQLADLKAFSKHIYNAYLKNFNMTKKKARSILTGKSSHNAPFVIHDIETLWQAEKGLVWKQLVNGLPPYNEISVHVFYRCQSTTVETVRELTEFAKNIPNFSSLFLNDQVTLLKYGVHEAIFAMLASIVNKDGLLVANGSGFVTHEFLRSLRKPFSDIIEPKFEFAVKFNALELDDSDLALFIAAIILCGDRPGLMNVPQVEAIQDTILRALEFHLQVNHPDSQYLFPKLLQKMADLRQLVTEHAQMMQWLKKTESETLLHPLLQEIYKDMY
Put plainly: PPARδ-glucocorticoid receptor hybrid reporter gene assay (alkaline phosphatase) in CHO cells. Type of assay: cell-based. The settings on record: 40 h, cPGI 5 μM with VPA 1 or 2 mM or TSA 300 nM.
Excerpt: A reporter gene cell line for activation of the PPARδ ligand binding domain was constructed in CHO cells. […] Activation of the PPARδ ligand binding domain in these cells induces expression of the alkaline phosphatase reporter gene which is detectable by an enzymatic assay from the cell culture supernatant. […] Reporter gene activity was monitored by an enzymatic assay (alkaline phosphatase).

Consider `CCCC(CCC)C(=O)O` [VPA, 2-n-propylpentanoic acid], for which the “Reduction of the rate of thymidine incorporation” value in assay [1] is 48±5% and 48%; in [2], 63±8%; in assay [3], 52±8%. Also, the “Appearance of nuclear AP-2 protein” value in assay [4] is “induce nuclear AP-2 protein”. Further, the “Accumulation of hyperacetylated histones H3 and H4” value (“Accumulation” below) in [5] is “induce hyperactylation of histones H3 and H4”. For the same molecule, the “Viability of tumor cells (MTT)” value in [6] is reported as “reduces the viability”. In addition, the Total cellular biomass result in [7] was “reduces the total cellular biomass”. Further, the “Cell death by morphological signs” value in assay [8] was “most cells were dying”. The “Change of cell morphology” value in assay [9] was “change their normal round morphology to a long fibroblast-like shape”; in assay [10], “change their normal round morphology to a long fibroblast-like shape”; in assay [11], “increase in length and develop spider-like filamentous extensions”.
For the molecule `CCCC(=O)[O-].[Na+]` [sodium butyrate], in [4], the “Appearance of nuclear AP-2 protein” value is listed as “weak”. The “Accumulation” value in assay [5] was “induce the accumulation of hyperacetylated histones H3 and H4”.
For `O=C1N[C@@H](Cc2ccccc2)C(=O)N2CCC[C@@H]2C(=O)N[C@@H](CCCCCC(=O)[C@@H]2CO2)C(=O)N[C@H]1Cc1ccccc1` [Trapoxin, trapoxin] (cyclo(FF[dP][Aoe])), the “Relief of transcriptional repression (increase in reporter gene activity)” value in assay [12] was “relief of repression”.
As for `CC(/C=C/C(=O)NO)=C\[C@@H](C)C(=O)c1ccc(N(C)C)cc1` [TSA, trichostatin A], the “Appearance of nuclear AP-2 protein” value in [4] is reported as “induce nuclear AP-2 protein”. The “Accumulation” value in [5] is “induce the accumulation of hyperacetylated histones H3 and H4”. The “Relief of transcriptional repression (increase in reporter gene activity)” value in assay [12] is recorded as “relief of repression”. The “Activation of the reporter gene together with the PPARδ ligand cPGI” value in assay [13] is given as “synergistic activation”.
